Experimental data taken from patent US20050032873A1, “3-Amino chroman and 2-amino tetralin derivatives” (Wyeth, priority 2003, published 2005).
Counter-ions that a name gives are not always drawn.

For `COc1cccc2c1CC(N(CCCc1c[nH]c3ccccc13)C1CCC1)CO2` (stereo not shown) (as salt: hydrochloride) [Compound 44, N-cyclobutyl-N-[3-(1H-indol-3-yl)propyl]-N-(5-methoxy-3,4-dihydro-2H-chromen-3-yl)amine], the melting point was 113 to 117 °C. In the case of `CCCN(CCCc1c[nH]c2ccc(F)cc12)C1CCc2c(F)ccc(OC)c2C1` (stereo not shown) (as salt: hydrochloride) [Compound 51, N-[3-(5-fluoro-1H-indol-3-yl)propyl]-N-(5-fluoro-8-methoxy-1,2,3,4-tetrahydronaphthalen-2-yl)-N-propylamine], the melting point is reported as 107 °C (dec.). With `CCCCN(CCCc1coc2c(OC)cccc12)C1COc2c(F)ccc(C(N)=O)c2C1` (stereo not shown) (as salt: hydrochloride) [Compound 166, 3-{butyl[3-(7-methoxy-1-benzofuran-3-yl)propyl]amino}-8-fluorochromane-5-carboxamide] the melting point was 110 to 117 °C (dec.). In the case of `NC(=O)c1ccc(F)c2c1OCC(NCCCc1c[nH]c3c(F)cc(F)cc13)C2` (stereo not shown) (as salt: hydrochloride) [Compound 128, 3-{[3-(5,7-difluoro-1H-indol-3-yl)propyl]amino}-5-fluorochromane-8-carboxamide], the melting point is reported as 149 °C (dec.). For `NC(=O)c1ccc(F)c2c1CC(N(CCCc1c[nH]c3ccc(F)cc13)C1CCC1)CO2` (single isomer, unassigned; (+)) (as salt: hydrochloride) [Compound 4a, (+)-3-{cyclobutyl[3-(5-fluoro-1H-indol-3-yl)propyl]amino}-8-fluorochromane-5-carboxamide], the melting point was 129 °C (dec.). In the case of `CCN(CCc1coc2c(OC)cccc12)C1COc2c(F)ccc(C(N)=O)c2C1` (stereo not shown) (as salt: hydrochloride) [Compound 157, 3-{ethyl[2-(7-methoxy-1-benzofuran-3-yl)ethyl]amino}-8-fluorochromane-5-carboxamide], the melting point is reported as 124 to 132 °C. In the case of `COc1cccc2c1CC(N(CCCc1c[nH]c3ccc(F)cc13)CC1CC1)CO2` (stereo not shown) (as salt: hydrochloride) [Compound 37, N-(cyclopropylmethyl)-N-[3-(5-fluoro-1H-indol-3-yl)propyl]-N-(5-methoxy-3,4-dihydro-2H-chromen-3-yl)amine], the melting point is reported as 114 °C (dec.). With `COC(=O)c1ccc(F)c2c1C[C@@H](NCCCCc1c[nH]c3ccc(F)cc13)CO2` (as salt: hydrochloride) [Compound 57b, methyl (3R)-8-fluoro-3-{[4-(5-fluoro-1H-indol-3-yl)butyl]amino}chromane-5-carboxylate] the melting point was 240 °C (dec.). With `COc1cccc2c(CCCN(C3CCC3)C3COc4c(F)ccc(C(N)=O)c4C3)coc12` (stereo not shown) (as salt: hydrochloride) [Compound 164, 3-{cyclobutyl[3-(7-methoxy-1-benzofuran-3-yl)propyl]amino}-8-fluorochromane-5-carboxamide] the melting point was 131 to 140 °C (dec.). In the case of `CNC(=O)c1ccc(F)c2c1CC(NCCCc1c[nH]c3ccc(F)cc13)CO2` (stereo not shown) (as salt: hydrochloride) [Compound 88, 8-fluoro-3-{[3-(5-fluoro-1H-indol-3-yl)propyl]amino}-N-methylchromane-5-carboxamide], the melting point is reported as 148 °C (dec.). In the case of `CNC(=O)c1ccc(F)c2c1CC(N(CCCc1c[nH]c3ccc(F)cc13)CC1CC1)CO2` (stereo not shown) (as salt: hydrochloride) [Compound 91, 3-{(cyclopropylmethyl)[3-(5-fluoro-1H-indol-3-yl)propyl]amino}-8-fluoro-N-methylchromane-5-carboxamide], the melting point is reported as 120 °C (dec.). For `CCCN(C(C)CCCc1c[nH]c2ccc(F)cc12)C1COc2c(F)ccc(C(N)=O)c2C1` (single isomer, unassigned; (-)) (as salt: hydrochloride) [Compound 14b, (−)-8-fluoro-3-[[4-(5-fluoro-1H-indol-3-yl)-1-methylbutyl](propyl)amino]chromane-5-carboxamide], the melting point was 147 to 150 °C. In the case of `O=C(O)c1ccc(F)c2c1CC(N(CCCc1c[nH]c3ccc(F)cc13)C1CCC1)CO2` (stereo not shown) (as salt: hydrochloride) [Compound 56, 3-{cyclobutyl[3-(5-fluoro-1H-indol-3-yl)propyl]amino}-8-fluorochromane-5-carboxylic acid], the melting point is reported as 140 °C (dec.). In the case of `CNC(=O)c1ccc(F)c2c1CC(N(CCCc1c[nH]c3ccc(F)cc13)C1CCC1)CO2` (stereo not shown) (as salt: hydrochloride) [Compound 59, 3-{cyclobutyl[3-(5-fluoro-1H-indol-3-yl)propyl]amino}-8-fluoro-N-methylchromane-5-carboxamide], the melting point is reported as 132 °C (dec.). Compound `COc1cccc2c(CCCNC3COc4c(F)ccc(C(N)=O)c4C3)c[nH]c12` (stereo not shown) (as salt: hydrochloride) [Compound 99, 8-fluoro-3-{[3-(7-methoxy-1H-indol-3-yl)propyl]amino}chromane-5-carboxamide] has a melting point of 196 to 198 °C. In the case of `COc1cccc2c1C[C@@H](N(CCCc1c[nH]c3ccc(F)cc13)C1CCC1)CO2` (as salt: hydrochloride) [Compound 35, (3R)-N-cyclobutyl-N-[3-(5-fluoro-1H-indol-3-yl)propyl]-5-methoxy-3,4-dihydro-2H-chromen-3-amine], the melting point is reported as 115 °C (dec.). With `NC(=O)c1ccc(F)c2c1C[C@H](N(CCCCc1c[nH]c3ccc(F)cc13)C1CCC1)CO2` (as salt: hydrochloride) [Compound 83b, (3S)-3-{cyclobutyl[4-(5-fluoro-1H-indol-3-yl)butyl]amino}-8-fluorochromane-5-carboxamide] the melting point was 128 °C (dec.). In the case of `O=C(NC1CCCCC1)c1ccc(F)c2c1CC(N(CCCc1c[nH]c3ccc(F)cc13)C1CCC1)CO2` (stereo not shown) (as salt: hydrochloride) [Compound 67, 3-{cyclobutyl[3-(5-fluoro-1H-indol-3-yl)propyl]amino}-N-cyclohexyl-8-fluorochromane-5-carboxamide], the melting point is reported as 134 °C (dec.). `NC(=O)c1ccc(F)c2c1C[C@@H](N(CCCc1c[nH]c3c(F)cc(F)cc13)CC1CC1)CO2` (as salt: hydrochloride) [Compound 147, (3R)-3-{(cyclopropylmethyl)[3-(5,7-difluoro-1H-indol-3-yl)propyl]amino}-8-fluorochromane-5-carboxamide] gave a melting point of 147 to 151 °C. With `CCNC(=O)c1ccc(F)c2c1CC(N(CCCc1c[nH]c3ccc(F)cc13)C1CCC1)CO2` (stereo not shown) (as salt: hydrochloride) [Compound 60, 3-{cyclobutyl[3-(5-fluoro-1H-indol-3-yl)propyl]amino}-N-ethyl-8-fluorochromane-5-carboxamide] the melting point was 130 °C (dec.). With `NC(=O)c1ccc(F)c2c1CC(N(CCC(=O)c1c[nH]c3ccc(F)cc13)C1CCC1)CO2` (stereo not shown) (as salt: hydrochloride) [Compound 8, 3-{cyclobutyl[3-(5-fluoro-1H-indol-3-yl)-3-oxopropyl]amino}-8-fluorochromane-5-carboxamide] the melting point was 139 °C (dec.). With `CCCN(CCc1c[nH]c2ccc(F)cc12)C1CCc2cccc(OC)c2C1` (stereo not shown) (as salt: hydrochloride) [Compound 48, N-[2-(5-fluoro-1H-indol-3-yl)ethyl]-N-(8-methoxy-1,2,3,4-tetrahydronaphthalen-2-yl)-N-propylamine] the melting point was 105 °C (dec.). For `COc1cccc2c(CCN(CC3CC3)C3COc4c(F)ccc(C(N)=O)c4C3)coc12` (stereo not shown) (as salt: hydrochloride) [Compound 160, 3-{(cyclopropylmethyl)[2-(7-methoxy-1-benzofuran-3-yl)ethyl]amino}-8-fluorochromane-5-carboxamide], the melting point was 130 to 138 °C (dec.). For `COC(=O)c1ccc(F)c2c1CC(NCCCCc1c[nH]c3ccc(F)cc13)CO2` (stereo not shown) (as salt: hydrochloride) [Compound 57, Methyl 8-fluoro-3-{[4-(5-fluoro-1H-indol-3-yl)butyl]amino}chromane-5-carboxylate], the melting point was 228 °C (dec.). For `CCCN(CCCc1c[nH]c2ccc(F)cc12)C1CCc2c(F)ccc(OC)c2C1` (single isomer, unassigned; (+)) (as salt: hydrochloride) [Compound 51a, (+)-5-fluoro-N-[3-(5-fluoro-1H-indol-3-yl)propyl]-8-methoxy-N-propyl-1,2,3,4-tetrahydro-2-naphthalenamine], the melting point was 117 °C (dec.). For `CCCN(CCCCc1c[nH]c2ccc(F)cc12)C1COc2c(F)ccc(C(N)=O)c2C1` (stereo not shown) (as salt: hydrochloride) [Compound 81, 8-fluoro-3-[[4-(5-fluoro-1H-indol-3-yl)butyl](propyl)amino]chromane-5-carboxamide], the melting point was 115 °C (dec.). For `CCCN(CCc1c[nH]c2ccc(F)cc12)C1COc2c(F)ccc(C(N)=O)c2C1` (stereo not shown) (as salt: hydrochloride) [Compound 77, 8-fluoro-3-[[2-(5-fluoro-1H-indol-3-yl)ethyl](propyl)amino]chromane-5-carboxamide], the melting point was 125 °C (dec.). In the case of `CC(CCc1c[nH]c2c(F)cc(F)cc12)N(CC1CC1)C1COc2c(F)ccc(C(N)=O)c2C1` (single isomer, unassigned) (as salt: HCl) [Compound 154a, 3-{(cyclopropylmethyl)[3-(5,7-difluoro-1H-indol-3-yl)-1-methylpropyl]amino}-8-fluorochromane-5-carboxamide], the melting point is reported as 160 to 165 °C. With `COc1cccc2c(CCN(C3CCC3)C3COc4c(F)ccc(C(N)=O)c4C3)coc12` (stereo not shown) (as salt: hydrochloride) [Compound 159, 3-{cyclobutyl[2-(7-methoxy-1-benzofuran-3-yl)ethyl]amino}-8-fluorochromane-5-carboxamide] the melting point was 135 to 145 °C (dec.). For `COC(=O)c1ccc(F)c2c1C[C@@H](N(CCCCc1c[nH]c3ccc(F)cc13)C1CCC1)CO2` (as salt: hydrochloride) [Compound 58b, Methyl (3R)-3-{cyclobutyl[4-(5-fluoro-1H-indol-3-yl)butyl]amino}-8-fluorochromane-5-carboxylate], the melting point was 209 °C (dec.). With `CCCN(CCCCc1c[nH]c2ccc(F)cc12)C1COc2c(C(N)=O)ccc(F)c2C1` (stereo not shown) (as salt: hydrochloride) [Compound 124, 5-fluoro-3-[[4-(5-fluoro-1H-indol-3-yl)butyl](propyl)amino]chromane-8-carboxamide] the melting point was 116 °C (dec.).
